Measurements as given in US11566007B2, “Ras inhibitors” (Revolution Medicines, Inc., priority 2019, dated 2023).
Like-named read-outs stand apart in the source and are kept apart here.

Experiments:
[1] = system: NCI-H358 cells (K-Ras G12C); test: Potency assay: pERK in NCI-H358 cells; assay type: cell-based, human; settings: Homo sapiens, NCI-H358; H358 KRAS G12C; read-out: pERK EC50
Method in brief: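 4 h cpd, 37 °C; 10-pt 3-fold series, 10 mM DMSO top stock, duplicates. Readout pERK: AlphaLISA SureFire Ultra or In-Cell Western (IR-800CW secondary, DRAQ5 DNA stain). IC50, 4-PL fit vs log conc.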

K-Ras G12C = K-Ras G12C (Homo sapiens (Human), UniProt P01116+P62937, G12C); test: Ras-Raf (BRAF RBD) disruption / FRET / MOA assay, KRAS G12C; assay type: biochemical; settings: KRAS G12C; Ras-Raf disruption/FRET/MOA assay; read-out: IC50* KRAS G12C FRET data
Chain of K-Ras G12C (P01116-2 other isoform, or with tags, fused parts or gaps G12C): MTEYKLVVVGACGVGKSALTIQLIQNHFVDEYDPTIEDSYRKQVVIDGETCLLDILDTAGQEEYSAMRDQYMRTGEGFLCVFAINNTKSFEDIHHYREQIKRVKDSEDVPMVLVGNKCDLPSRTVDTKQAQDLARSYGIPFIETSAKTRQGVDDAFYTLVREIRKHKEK
Chain of K-Ras G12C (P62937 whole entry): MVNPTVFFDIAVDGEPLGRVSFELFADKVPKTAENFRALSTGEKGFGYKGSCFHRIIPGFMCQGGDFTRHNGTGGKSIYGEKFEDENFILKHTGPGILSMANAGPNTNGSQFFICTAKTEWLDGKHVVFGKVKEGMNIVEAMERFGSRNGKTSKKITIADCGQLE
Method in brief: (§1)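 Compound-driven ternary complex of nucleotide-loaded Ras with cyclophilin A, disrupting BRAF RBD binding. 10-point 3-fold dilution from 30 μM final, 3 h at 25° C, then anti-His Eu-W1024 (10 nM) and anti-GST allophycocyanin (50 nM) for 1.5 h. IC50 from TR-FRET ratio decrease versus DMSO.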

NCI-H358 (K-Ras G12C) = test: CellTiter-Glo cell viability assay, NCI-H358; assay type: cell-based, human; settings: NCI-H358, 5-day treatment, class symbols, read-out: Additional H358 Cell Viability assay data (K-Ras G12C, IC50)
Method in brief: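 Viability measured by CellTiter-Glo luminescence on day 5 following direct addition of compound to plated cells. Values expressed as percent of mean DMSO signal; curves fitted with a four-parameter logistic model.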

KRAS G12D = KRAS G12D (Homo sapiens (Human), UniProt P01116+P62937, G12D); test: Ras-Raf (BRAF RBD) disruption / FRET / MOA assay, KRAS G12D; assay type: biochemical; settings: Ras-Raf disruption/FRET/MOA assay; class symbols; read-out: KRAS G12D FRET data IC50
Chain of KRAS G12D (P01116-2 other isoform, or with tags, fused parts or gaps G12D): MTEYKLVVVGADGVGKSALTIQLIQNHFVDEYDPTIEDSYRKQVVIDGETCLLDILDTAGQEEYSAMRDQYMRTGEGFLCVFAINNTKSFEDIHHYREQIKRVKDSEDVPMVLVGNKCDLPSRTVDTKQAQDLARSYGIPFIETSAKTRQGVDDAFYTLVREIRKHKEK
Chain of KRAS G12D (P62937 whole entry): as the sequence (P62937 whole entry) above
Method in brief: as §1

KRAS G13D = KRAS G13D (Homo sapiens (Human), UniProt P01116+P62937, G13D); test: Ras-Raf (BRAF RBD) disruption / FRET / MOA assay, KRAS G13D; assay type: biochemical; settings: read-out: IC50* KRAS G13D FRET data
Chain of KRAS G13D (P01116-2 other isoform, or with tags, fused parts or gaps G13D): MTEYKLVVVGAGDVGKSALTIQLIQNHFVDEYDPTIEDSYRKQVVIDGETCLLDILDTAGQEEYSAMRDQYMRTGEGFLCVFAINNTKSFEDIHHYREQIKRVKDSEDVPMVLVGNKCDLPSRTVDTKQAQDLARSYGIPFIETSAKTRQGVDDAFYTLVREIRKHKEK
Chain of KRAS G13D (P62937 whole entry): as the sequence (P62937 whole entry) above
Method in brief: as §1

K-Ras G13C = K-Ras G13C (Homo sapiens (Human), UniProt P01116+P62937, G13C); test: Ras-Raf (BRAF RBD) disruption / FRET / MOA assay, KRAS G13C; assay type: biochemical; settings: KRAS G13C; Ras-Raf disruption/FRET/MOA assay; read-out: IC50* KRAS G13C FRET data
Chain of K-Ras G13C (P01116-2 other isoform, or with tags, fused parts or gaps G13C): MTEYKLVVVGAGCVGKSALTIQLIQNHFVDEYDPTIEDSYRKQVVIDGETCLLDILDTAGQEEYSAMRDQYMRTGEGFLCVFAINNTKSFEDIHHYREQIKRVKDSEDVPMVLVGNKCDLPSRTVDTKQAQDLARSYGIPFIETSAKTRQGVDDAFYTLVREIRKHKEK
Chain of K-Ras G13C (P62937 whole entry): as the sequence (P62937 whole entry) above
Method in brief: as §1

NRAS G12C = NRAS G12C (Homo sapiens (Human), UniProt P01111+P62937, G12C); test: Ras-Raf (BRAF RBD) disruption / FRET / MOA assay, NRAS G12C; assay type: biochemical; settings: read-out: IC50* NRAS G12C FRET data
Chain of NRAS G12C (P01111 whole entry G12C): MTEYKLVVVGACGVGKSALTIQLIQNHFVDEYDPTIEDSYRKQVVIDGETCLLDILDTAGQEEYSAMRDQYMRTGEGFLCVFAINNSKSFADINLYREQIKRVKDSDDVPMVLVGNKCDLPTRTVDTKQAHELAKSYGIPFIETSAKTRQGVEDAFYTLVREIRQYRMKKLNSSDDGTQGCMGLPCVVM
Chain of NRAS G12C (P62937 whole entry): as the sequence (P62937 whole entry) above
Method in brief: as §1

KRAS G12S = KRAS G12S (Homo sapiens (Human), UniProt P01116+P62937, G12S); test: Ras-Raf (BRAF RBD) disruption / FRET / MOA assay, KRAS G12S; assay type: biochemical; settings: Ras-Raf disruption/FRET/MOA assay; class symbols; read-out: KRAS G12S FRET data IC50
Chain of KRAS G12S (P01116-2 other isoform, or with tags, fused parts or gaps G12S): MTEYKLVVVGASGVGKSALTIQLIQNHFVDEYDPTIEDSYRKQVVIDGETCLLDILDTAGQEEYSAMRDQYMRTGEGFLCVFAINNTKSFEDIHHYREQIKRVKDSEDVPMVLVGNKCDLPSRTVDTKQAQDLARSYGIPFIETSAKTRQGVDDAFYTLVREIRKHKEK
Chain of KRAS G12S (P62937 whole entry): as the sequence (P62937 whole entry) above
Method in brief: as §1

KRAS WT = KRAS WT (Homo sapiens (Human), UniProt P01116+P62937); test: Ras-Raf (BRAF RBD) disruption / FRET / MOA assay, KRAS WT; assay type: biochemical; settings: read-out: IC50* KRAS WT FRET data
Chain of KRAS WT (P01116-2 other isoform, or with tags, fused parts or gaps): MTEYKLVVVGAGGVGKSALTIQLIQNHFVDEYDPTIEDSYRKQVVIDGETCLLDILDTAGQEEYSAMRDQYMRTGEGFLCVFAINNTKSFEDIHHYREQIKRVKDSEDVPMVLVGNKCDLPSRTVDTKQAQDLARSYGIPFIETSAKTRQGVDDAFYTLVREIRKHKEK
Chain of KRAS WT (P62937 whole entry): as the sequence (P62937 whole entry) above
Method in brief: as §1

KRAS G12V = KRAS G12V (Homo sapiens (Human), UniProt P01116+P62937, G12V); test: Ras-Raf (BRAF RBD) disruption / FRET / MOA assay, KRAS G12V; assay type: biochemical; settings: read-out: IC50* KRAS G12V FRET data
Chain of KRAS G12V (P01116-2 other isoform, or with tags, fused parts or gaps G12V): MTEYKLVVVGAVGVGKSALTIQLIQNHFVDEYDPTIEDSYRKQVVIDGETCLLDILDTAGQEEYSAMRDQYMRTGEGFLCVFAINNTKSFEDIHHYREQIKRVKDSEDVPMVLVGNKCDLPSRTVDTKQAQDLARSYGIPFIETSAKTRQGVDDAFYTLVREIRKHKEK
Chain of KRAS G12V (P62937 whole entry): as the sequence (P62937 whole entry) above
Method in brief: as §1

Structure (SMILES): C=CC(=O)N1C[C@@H](C)[C@H](C(=O)N(C)[C@H](C(=O)N[C@H]2Cc3cccc(c3)-c3ccc4c(c3)c(c(-c3cccnc3[C@H](C)OC)n4CC)CC(C)(C)COC(=O)[C@@H]3CCCN(N3)C2=O)C(C)C)C1 (atropisomer, axis not shown) [Example A497]
- EC50 [1]: < 5 µM
- IC50 (K-Ras G12C): 0.1 to 1 µM
- IC50 (NCI-H358 (K-Ras G12C); Homo sapiens, NCI-H358, 120 h): 0.01 to 0.1 µM
- IC50 (KRAS G12D): > 10 µM
- IC50 (KRAS G13D): > 10 µM
- IC50 (K-Ras G13C): 0.1 to 1 µM
- IC50 (NRAS G12C): 0.1 to 1 µM
- IC50 (KRAS G12S): > 10 µM
- IC50 (KRAS WT): 1 to 10 µM
- IC50 (KRAS G12V): > 10 µM

Structure (SMILES): CCn1c(-c2cccnc2[C@H](C)OC)c2c3cc(ccc31)-c1cccc(c1)C[C@H](NC(=O)[C@H](C(C)C)N(C)C(=O)[C@H]1CCN(C(=O)C#CC3(N(C)C)CN(C)C3)C1)C(=O)N1CCC[C@H](N1)C(=O)OCC(C)(C)C2 (atropisomer, axis not shown) [Example A499]
- EC50 [1]: < 5 µM
- IC50 (K-Ras G12C): 0.01 to 0.1 µM
- IC50 (NCI-H358 (K-Ras G12C); Homo sapiens, NCI-H358, 120 h): 0.01 to 0.1 µM
- IC50 (KRAS G12D): 1 to 10 µM
- IC50 (KRAS G13D): 1 to 10 µM
- IC50 (K-Ras G13C): 1 to 10 µM
- IC50 (NRAS G12C): 0.01 to 0.1 µM
- IC50 (KRAS G12S): 1 to 10 µM
- IC50 (KRAS WT): 1 to 10 µM
- IC50 (KRAS G12V): 1 to 10 µM

Structure (SMILES): C=CC(=O)N1CC[C@](F)(C(=O)N(C)[C@H](C(=O)N[C@H]2Cc3cccc(c3)-c3ccc4c(c3)c(c(-c3cccnc3[C@H](C)OC)n4CC)CC(C)(C)COC(=O)[C@@H]3CCCN(N3)C2=O)C(C)C)C1 (atropisomer, axis not shown) [Example A501]
- EC50 [1]: < 5 µM
- IC50 (K-Ras G12C): 0.01 to 0.1 µM
- IC50 (NCI-H358 (K-Ras G12C); Homo sapiens, NCI-H358, 120 h): 0.01 to 0.1 µM
- IC50 (KRAS G12D): 1 to 10 µM
- IC50 (KRAS G13D): 1 to 10 µM
- IC50 (K-Ras G13C): 0.1 to 1 µM
- IC50 (NRAS G12C): 0.01 to 0.1 µM
- IC50 (KRAS G12S): 1 to 10 µM
- IC50 (KRAS WT): 0.1 to 1 µM
- IC50 (KRAS G12V): 1 to 10 µM

Structure (SMILES): CC#CC(=O)N1CC[C@]2(CCN([C@H](C(=O)N[C@H]3Cc4nc(cs4)-c4ccc5c(c4)c(c(-c4cccnc4[C@H](C)OC)n5CC)CC(C)(C)COC(=O)[C@@H]4CCCN(N4)C3=O)C(C)C)C2=O)C1 (atropisomer, axis not shown) [Example A511]
- EC50 [1]: < 5 µM
- IC50 (K-Ras G12C): 0.1 to 1 µM
- IC50 (NCI-H358 (K-Ras G12C); Homo sapiens, NCI-H358, 120 h): < 0.01 µM
- IC50 (KRAS G12D): > 10 µM
- IC50 (KRAS G13D): 1 to 10 µM
- IC50 (K-Ras G13C): 1 to 10 µM
- IC50 (NRAS G12C): 0.1 to 1 µM
- IC50 (KRAS G12S): 1 to 10 µM
- IC50 (KRAS WT): 1 to 10 µM
- IC50 (KRAS G12V): 1 to 10 µM

Structure (SMILES): C=CC(=O)N1CC[C@H](C(=O)N(C)[C@H](C(=O)N[C@H]2Cc3cccc(c3)-c3ccc4c(c3)c(c(-c3cccnc3[C@@H]3CCCO3)n4CC)CC(C)(C)COC(=O)[C@@H]3CCCN(N3)C2=O)C(C)C)C1 (atropisomer, axis not shown) [Example A512]
- EC50 [1]: < 5 µM
- IC50 (K-Ras G12C): 0.1 to 1 µM
- IC50 (NCI-H358 (K-Ras G12C); Homo sapiens, NCI-H358, 120 h): 0.01 to 0.1 µM
- IC50 (KRAS G12D): > 10 µM
- IC50 (KRAS G13D): > 10 µM
- IC50 (K-Ras G13C): 1 to 10 µM
- IC50 (NRAS G12C): 0.1 to 1 µM
- IC50 (KRAS G12S): 1 to 10 µM
- IC50 (KRAS WT): 1 to 10 µM
- IC50 (KRAS G12V): 1 to 10 µM

Structure (SMILES): C=CC(=O)N1CC[C@H](C(=O)N(C)[C@H](C(=O)N[C@H]2Cc3cccc(c3)-c3ccc4c(c3)c(c(-c3cc(C5=CCN(C)CC5)cnc3[C@H](C)OC)n4CC)CC(C)(C)COC(=O)[C@@H]3CCCN(N3)C2=O)C(C)C)C1 (atropisomer, axis not shown) [Example A513]
- EC50 [1]: < 5 µM
- IC50 (K-Ras G12C): 0.01 to 0.1 µM
- IC50 (NCI-H358 (K-Ras G12C)): < 0.01 µM
- IC50 (KRAS G12D): 1 to 10 µM
- IC50 (KRAS G13D): 1 to 10 µM
- IC50 (K-Ras G13C): 0.1 to 1 µM
- IC50 (NRAS G12C): 0.01 to 0.1 µM
- IC50 (KRAS G12S): 1 to 10 µM
- IC50 (KRAS WT): 1 to 10 µM
- IC50 (KRAS G12V): 1 to 10 µM

Structure (SMILES): C=CC(=O)N1CC(F)(C(=O)N(C)[C@H](C(=O)N[C@H]2Cc3cccc(c3)-c3ccc4c(c3)c(c(-c3cccnc3[C@H](C)OC)n4CC)CC(C)(C)COC(=O)[C@@H]3CCCN(N3)C2=O)C(C)C)C1 (atropisomer, axis not shown) [Example A517]
- EC50 [1]: < 5 µM
- IC50 (K-Ras G12C): 0.01 to 0.1 µM
- IC50 (NCI-H358 (K-Ras G12C); Homo sapiens, NCI-H358, 120 h): < 0.01 µM
- IC50 (KRAS G12D): 1 to 10 µM
- IC50 (KRAS G13D): 1 to 10 µM
- IC50 (K-Ras G13C): 0.01 to 0.1 µM
- IC50 (NRAS G12C): 0.01 to 0.1 µM
- IC50 (KRAS G12S): 0.1 to 1 µM
- IC50 (KRAS WT): 0.1 to 1 µM
- IC50 (KRAS G12V): 0.1 to 1 µM

Structure (SMILES): C=CC(=O)N1CCC(F)(C(=O)N(C)[C@H](C(=O)N[C@H]2Cc3cccc(c3)-c3ccc4c(c3)c(c(-c3cccnc3[C@H](C)OC)n4CC)CC(C)(C)COC(=O)[C@@H]3CCCN(N3)C2=O)C(C)C)CC1 (atropisomer, axis not shown) [Example A518]
- EC50 [1]: < 5 µM
- IC50 (K-Ras G12C): 0.01 to 0.1 µM
- IC50 (NCI-H358 (K-Ras G12C); Homo sapiens, NCI-H358, 120 h): < 0.01 µM
- IC50 (KRAS G12D): 1 to 10 µM
- IC50 (KRAS G13D): 0.1 to 1 µM
- IC50 (K-Ras G13C): 0.1 to 1 µM
- IC50 (NRAS G12C): 0.01 to 0.1 µM
- IC50 (KRAS G12S): 0.1 to 1 µM
- IC50 (KRAS WT): 0.1 to 1 µM
- IC50 (KRAS G12V): 0.1 to 1 µM
